Measured values from patent US20250009834A1, “COMPOSITION OF BEVERAGE CONCENTRATE CONTAINING CITRIC ACID AND NATURAL ANTIOXIDANT” (priority 2021, published 2025).

Experiment: CaOx aggregation inhibition (aggregation coefficient of seed COM crystals)
Conditions: 200 μL sample added to 2 mL seed COM suspension, 37° C., 10 min; embodiment 100% concentration; BSA 1 mg/mL; citric acid positive control
Procedure: In the following in-vitro trials, all “%” marks represented percentages by weight. An embodiment of “100%” concentration was prepared by mixing 60 mL of a beverage concentrate of an exemplary composition (see Table 1 above) with 440 mL of distilled water, equivalent to a ratio of 0.136 parts of the exemplary composition to one part of water. An embodiment of a concentration lower than 100% was prepared by further diluting said embodiment of 100% concentration with distilled water by a conventionally known dilution means that is appropriate for food and beverages. All the mixtures concerned were conventionally mixed to achieve effective uniformity for food and beverages.
Seed calcium oxalate monohydrate (COM) crystals were prepared and diluted to 50 mg/mL in 0.05 M Tris/0.15 NaCl, pH 6.5. An embodiment having the 100% concentration, or bovine serum albumin (BSA) or distilled water (blank) (200 μL) was added to the freshly prepared working seed COM suspension (2 mL). After mixing, absorbance at 620 nm was measured as baseline (AT0). After incubating at 37° C. for 10 min. absorbance was measured again (AT10). The aggregation coefficient (AC) was calculated from: AC=((AT0−AT10)/10)×1,000. Higher AC value indicates higher COM aggregation.

| Compound | aggregation of seed COM crystals |
| --- | --- |
| bovine serum albumin [BSA] | did not |
| O=C(O)CC(O)(CC(=O)O)C(=O)O [Citric acid] | strongly inhibited |
